pIC50: −log10 of the molar value.

Common to all, as to type: cell-based
Assay [1] concerns colorectal carcinoma cell line DLD-1. Description: Tumor cell viability assay (Trypan blue exclusion), DLD-1. The conditions noted are these: DLD-1 cell line, tested at 5, 10 and 20 μM, 96 hours, read-out: G150 (the concentration resulting in 50% growth inhibition). The text has this: (§1) The effect of the Example 13 compound on the growth of normal fibroblasts and on tumor cells of prostate, colon, lung, brain, pancreas and breast origin was examined utilizing the following cell lines: prostate carcinoma cell line DU-145; colorectal carcinoma cell line DLD-1; non-small cell lung carcinoma cell line H157; pancreatic carcinoma cell line MIA-Pa-Ca-2; glioblastoma cell line U87; and breast adenocarcinoma cell line BT-20. BT-20 is an estrogen-unresponsive cell line. NIH/3T3 and HFL are normal murine and human fibroblasts, respectively. BT-20, DLD-1 and H157 were grown in Dulbecco's modified Eagle's medium (DMEM) containing 10% fetal bovine serum supplemented with penicillin and streptomycin. DU145 was cultured in RPMI with 10% fetal bovine serum containing penicillin and streptomycin. […]
(§2) Cells were treated with the Example 13 compound at concentrations of 100, 250, 500 and 1000 nM. Cell viability was determined after 96 hours by the Trypan blue exclusion method. […] The drug G150 (the concentration resulting in 50% growth inhibition) was calculated as 200 nM for the MIA-Pa-Ca-2 cell line.
(§3) The procedure of Example 40 was followed for the compound of Example 37, on cell lines DLD-1, H157 and BT20, at 5, 10 and 20 μM concentrations. The drug G150 was calculated for each cell line as follows: DLD, 8 μM; H157, 15 μM; and BT20, 15 μM.

The test system of assay [2] is non-small cell lung carcinoma cell line H157. The experiment in a line: Tumor cell viability assay (Trypan blue exclusion), H157. Conditions: tested at 5, 10 and 20 μM, 96 hours, read-out: G150 (the concentration resulting in 50% growth inhibition).
Excerpt: as §1, §2, §3

Assay [3] has as its system breast adenocarcinoma cell line BT-20. The experiment in a line: Tumor cell viability assay (Trypan blue exclusion), BT-20. The conditions noted are these: BT20 cell line, tested at 5, 10 and 20 μM, 96 hours, read-out: G150 (the concentration resulting in 50% growth inhibition).
Excerpt: as §1, §2, §3

Assay [4] has as its system pancreatic carcinoma cell line MIA-Pa-Ca-2. The experiment in a line: Tumor cell viability assay (Trypan blue exclusion), MIA-Pa-Ca-2. Conditions: MIA-Pa-Ca-2 cell line, 96 hours, vs DMSO-treated cells, read-out: G150 (the concentration resulting in 50% growth inhibition).
Excerpt: (§4) The effect of the Example 13 compound on the growth of normal fibroblasts and on tumor cells of prostate, colon, lung, brain, pancreas and breast origin was examined utilizing the following cell lines: prostate carcinoma cell line DU-145; colorectal carcinoma cell line DLD-1; non-small cell lung carcinoma cell line H157; pancreatic carcinoma cell line MIA-Pa-Ca-2; glioblastoma cell line U87; and breast adenocarcinoma cell line BT-20. BT-20 is an estrogen-unresponsive cell line. NIH/3T3 and HFL are normal murine and human fibroblasts, respectively. BT-20, DLD-1 and H157 were grown in Dulbecco's modified Eagle's medium (DMEM) containing 10% fetal bovine serum supplemented with penicillin and streptomycin. DU145 was cultured in RPMI with 10% fetal bovine serum containing penicillin and streptomycin. NIH3T3 and HFL cells were grown in DMEM containing 10% calf serum supplemented with penicillin and streptomycin. Cells were plated at density levels of 1.0×10^5 cells per well in six-well plates. Cell cultures were maintained at 37° C. in a humidified atmosphere of 5% CO2.
as §2

Assay [5] has as its system HFL normal human fibroblasts. Description: Normal fibroblast viability assay (Trypan blue exclusion), HFL. The conditions noted are these: normal cells HFL; treated at 100-1000 nM; 96 hours.
Excerpt: as §4, §2

In assay [6] the test system is NIH/3T3 normal murine fibroblasts. Description: Normal fibroblast viability assay (Trypan blue exclusion), NIH 3T3. Conditions: normal cells NIH 3T3; treated at 100-1000 nM; 96 hours.
Excerpt: as §4, §2

`O=[N+]([O-])c1ccccc1/C=C/S(=O)(=O)Cc1ccc(Cl)cc1Cl` [Example 37, (E)-2-Nitrostyryl-2,4-dichlorobenzylsulfone]: the pIC50 in assay [1] was 5.10; in assay [2], 4.82; in assay [3], 4.82.

Regarding “(E)-2,6-Dimethoxystyryl-4-methoxybenzylsulfone [Example 13]”, the pIC50 in assay [4] was 6.70. In addition, the cell death entry in assay [5] and in assay [6] was “no appreciable cell death” each time. In addition, the growth inhibition in assay [5] and in assay [6] was 5% throughout.
